Consider 5 molecules from ChEMBL document CHEMBL5465560, “Selectivity Literature for EUbOPEN Chemogenomic Library” (2024).

As usually defined, the pIC50 is the negative decadic logarithm of the IC50, by convention in mol/L.

The target in assay [1] is T1, Protein kinase C zeta type (Homo sapiens) (UniProt Q05513).
T1 sequence (whole entry): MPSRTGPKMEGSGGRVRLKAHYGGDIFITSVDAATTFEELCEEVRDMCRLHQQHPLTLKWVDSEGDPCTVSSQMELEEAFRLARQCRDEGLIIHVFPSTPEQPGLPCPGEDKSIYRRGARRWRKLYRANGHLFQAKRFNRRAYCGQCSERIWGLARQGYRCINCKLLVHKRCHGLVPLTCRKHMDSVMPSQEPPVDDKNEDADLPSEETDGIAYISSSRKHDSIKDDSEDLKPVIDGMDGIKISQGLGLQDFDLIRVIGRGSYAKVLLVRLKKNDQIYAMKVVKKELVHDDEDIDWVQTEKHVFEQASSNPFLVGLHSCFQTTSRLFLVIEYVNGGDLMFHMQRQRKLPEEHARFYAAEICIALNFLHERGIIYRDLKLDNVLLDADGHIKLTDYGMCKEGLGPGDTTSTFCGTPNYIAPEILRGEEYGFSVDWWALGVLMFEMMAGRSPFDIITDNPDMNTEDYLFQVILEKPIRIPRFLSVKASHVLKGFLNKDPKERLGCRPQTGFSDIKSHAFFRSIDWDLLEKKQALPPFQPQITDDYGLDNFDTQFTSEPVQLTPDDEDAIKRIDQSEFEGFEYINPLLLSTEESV
Description: Selectivity interaction (Upstate Kinase Profiler service (Millipore)) EUB0000056c PRKCZ. The following applies: at 1 µM.

The target in assay [2] is T2, Inhibitor of nuclear factor kappa-B kinase subunit alpha (Homo sapiens) (UniProt O15111).
T2 sequence (whole entry): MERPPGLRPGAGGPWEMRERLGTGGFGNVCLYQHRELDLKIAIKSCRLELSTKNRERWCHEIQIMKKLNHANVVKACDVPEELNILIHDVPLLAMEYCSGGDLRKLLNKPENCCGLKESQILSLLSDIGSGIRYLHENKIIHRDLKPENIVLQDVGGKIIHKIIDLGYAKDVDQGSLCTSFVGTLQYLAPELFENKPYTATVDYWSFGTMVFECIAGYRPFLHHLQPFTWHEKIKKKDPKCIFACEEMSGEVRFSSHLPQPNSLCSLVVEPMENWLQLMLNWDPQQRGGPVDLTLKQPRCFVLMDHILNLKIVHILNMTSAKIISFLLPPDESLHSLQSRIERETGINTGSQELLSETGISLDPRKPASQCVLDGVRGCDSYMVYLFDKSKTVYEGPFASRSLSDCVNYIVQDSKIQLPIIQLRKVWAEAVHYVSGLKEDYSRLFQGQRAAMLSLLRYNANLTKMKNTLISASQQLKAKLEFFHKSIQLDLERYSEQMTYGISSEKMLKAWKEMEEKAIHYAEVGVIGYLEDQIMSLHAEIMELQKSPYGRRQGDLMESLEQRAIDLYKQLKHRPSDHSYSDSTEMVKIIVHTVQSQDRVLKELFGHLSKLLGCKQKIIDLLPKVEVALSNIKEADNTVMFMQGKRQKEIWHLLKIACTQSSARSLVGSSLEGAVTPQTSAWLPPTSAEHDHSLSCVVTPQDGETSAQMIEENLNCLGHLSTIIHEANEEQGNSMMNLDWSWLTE
Description: Selectivity interaction (KinomeScan (DiscoverX)) EUB0000695a CHUK. Particulars: at 100 nM.

For assay [3], the target named is SWI/SNF-related matrix-associated actin-dependent regulator of chromatin subfamily A member 2 (Homo sapiens, UniProt P51531). Description: Selectivity interaction (Bromodomain panel (DSF asssay)) EUB0000270b SMARCA2.
Assay [4] addresses Tyrosine-protein kinase ABL1 (Homo sapiens, UniProt P00519). Description: Selectivity interaction (Kinase panel (33PanQinase(R) Activity Assay)) EUB0000877a ABL1.
Assay [5] addresses Macrophage-stimulating protein receptor (Homo sapiens, UniProt Q04912). Description: Selectivity interaction (KinomeScan (DiscoverX)) EUB0000595a MST1R. The following applies: at 10 µM.
In assay [6] the target is T3, Serine/threonine-protein kinase TAO1 (Homo sapiens) (UniProt Q7L7X3).
T3 sequence (whole entry): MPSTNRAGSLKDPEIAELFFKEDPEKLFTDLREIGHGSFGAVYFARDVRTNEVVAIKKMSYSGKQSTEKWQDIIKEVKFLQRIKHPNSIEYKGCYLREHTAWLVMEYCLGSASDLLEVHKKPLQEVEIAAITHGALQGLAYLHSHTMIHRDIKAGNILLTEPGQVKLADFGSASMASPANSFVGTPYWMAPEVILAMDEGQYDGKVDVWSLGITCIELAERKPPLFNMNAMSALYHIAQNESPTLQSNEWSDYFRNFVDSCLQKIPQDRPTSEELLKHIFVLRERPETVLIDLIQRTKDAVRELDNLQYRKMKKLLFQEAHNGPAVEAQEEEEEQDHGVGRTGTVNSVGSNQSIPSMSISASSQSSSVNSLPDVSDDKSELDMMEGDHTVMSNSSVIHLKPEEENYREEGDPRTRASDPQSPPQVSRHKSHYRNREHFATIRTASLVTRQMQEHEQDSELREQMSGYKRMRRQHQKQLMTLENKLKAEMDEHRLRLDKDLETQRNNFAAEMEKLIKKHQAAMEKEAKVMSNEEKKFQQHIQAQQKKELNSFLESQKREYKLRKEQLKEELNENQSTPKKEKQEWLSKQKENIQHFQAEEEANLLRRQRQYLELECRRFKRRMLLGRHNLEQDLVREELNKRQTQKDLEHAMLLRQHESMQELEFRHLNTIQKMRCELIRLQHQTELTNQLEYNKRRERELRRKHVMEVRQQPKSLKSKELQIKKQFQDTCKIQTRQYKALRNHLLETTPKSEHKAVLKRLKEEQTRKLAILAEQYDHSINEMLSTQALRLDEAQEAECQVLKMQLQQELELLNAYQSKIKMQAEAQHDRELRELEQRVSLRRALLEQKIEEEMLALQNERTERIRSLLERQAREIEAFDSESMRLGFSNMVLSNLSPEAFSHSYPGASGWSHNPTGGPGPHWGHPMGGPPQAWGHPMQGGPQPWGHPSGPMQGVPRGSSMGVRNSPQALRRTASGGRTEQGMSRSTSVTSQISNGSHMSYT
Description: Selectivity interaction (KinomeScan (DiscoverX)) EUB0000595a TAOK1. The following applies: at 10 µM.

pIC50: −log10 of the molar value.

Sequence of Macrophage-stimulating protein receptor (Q04912 25-304 limits assumed): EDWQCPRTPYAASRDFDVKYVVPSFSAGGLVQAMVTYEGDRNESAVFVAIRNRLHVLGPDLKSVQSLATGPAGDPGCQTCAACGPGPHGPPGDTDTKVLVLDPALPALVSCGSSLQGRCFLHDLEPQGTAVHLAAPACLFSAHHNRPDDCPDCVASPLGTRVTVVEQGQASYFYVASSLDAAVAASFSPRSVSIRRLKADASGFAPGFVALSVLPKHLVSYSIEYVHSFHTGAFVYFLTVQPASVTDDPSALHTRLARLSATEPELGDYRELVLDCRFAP
Sequence of Macrophage-stimulating protein receptor (Q04912 310-1400 limits assumed): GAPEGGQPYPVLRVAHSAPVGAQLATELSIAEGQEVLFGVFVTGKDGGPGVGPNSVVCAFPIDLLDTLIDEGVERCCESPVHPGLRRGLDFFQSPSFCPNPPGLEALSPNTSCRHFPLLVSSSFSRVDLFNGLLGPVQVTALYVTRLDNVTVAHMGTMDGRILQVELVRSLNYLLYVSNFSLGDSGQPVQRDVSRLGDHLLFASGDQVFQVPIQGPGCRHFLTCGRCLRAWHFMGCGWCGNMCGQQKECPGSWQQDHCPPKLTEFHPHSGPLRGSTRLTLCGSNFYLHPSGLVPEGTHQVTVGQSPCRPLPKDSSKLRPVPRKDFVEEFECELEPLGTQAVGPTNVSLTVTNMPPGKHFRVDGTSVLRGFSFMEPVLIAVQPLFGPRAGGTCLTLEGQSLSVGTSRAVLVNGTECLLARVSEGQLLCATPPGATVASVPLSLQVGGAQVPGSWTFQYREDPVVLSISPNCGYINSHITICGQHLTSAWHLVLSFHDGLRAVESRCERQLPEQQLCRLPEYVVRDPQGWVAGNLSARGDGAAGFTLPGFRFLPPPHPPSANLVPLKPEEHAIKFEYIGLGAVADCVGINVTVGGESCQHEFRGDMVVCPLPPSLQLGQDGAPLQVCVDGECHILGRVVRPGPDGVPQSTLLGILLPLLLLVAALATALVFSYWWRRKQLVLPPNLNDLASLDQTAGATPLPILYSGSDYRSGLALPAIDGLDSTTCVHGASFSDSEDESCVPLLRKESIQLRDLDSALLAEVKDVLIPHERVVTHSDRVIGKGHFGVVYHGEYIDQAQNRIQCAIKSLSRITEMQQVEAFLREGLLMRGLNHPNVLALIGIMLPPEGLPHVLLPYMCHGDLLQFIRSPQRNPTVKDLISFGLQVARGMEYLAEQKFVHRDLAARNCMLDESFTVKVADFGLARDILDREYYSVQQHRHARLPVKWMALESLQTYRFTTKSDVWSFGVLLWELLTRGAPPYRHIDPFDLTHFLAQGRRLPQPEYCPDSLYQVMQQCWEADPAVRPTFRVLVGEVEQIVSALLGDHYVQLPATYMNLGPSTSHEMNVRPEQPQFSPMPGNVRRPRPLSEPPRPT
Sequence of SWI/SNF-related matrix-associated actin-dependent regulator of chromatin subfamily A member 2 (P51531 whole entry): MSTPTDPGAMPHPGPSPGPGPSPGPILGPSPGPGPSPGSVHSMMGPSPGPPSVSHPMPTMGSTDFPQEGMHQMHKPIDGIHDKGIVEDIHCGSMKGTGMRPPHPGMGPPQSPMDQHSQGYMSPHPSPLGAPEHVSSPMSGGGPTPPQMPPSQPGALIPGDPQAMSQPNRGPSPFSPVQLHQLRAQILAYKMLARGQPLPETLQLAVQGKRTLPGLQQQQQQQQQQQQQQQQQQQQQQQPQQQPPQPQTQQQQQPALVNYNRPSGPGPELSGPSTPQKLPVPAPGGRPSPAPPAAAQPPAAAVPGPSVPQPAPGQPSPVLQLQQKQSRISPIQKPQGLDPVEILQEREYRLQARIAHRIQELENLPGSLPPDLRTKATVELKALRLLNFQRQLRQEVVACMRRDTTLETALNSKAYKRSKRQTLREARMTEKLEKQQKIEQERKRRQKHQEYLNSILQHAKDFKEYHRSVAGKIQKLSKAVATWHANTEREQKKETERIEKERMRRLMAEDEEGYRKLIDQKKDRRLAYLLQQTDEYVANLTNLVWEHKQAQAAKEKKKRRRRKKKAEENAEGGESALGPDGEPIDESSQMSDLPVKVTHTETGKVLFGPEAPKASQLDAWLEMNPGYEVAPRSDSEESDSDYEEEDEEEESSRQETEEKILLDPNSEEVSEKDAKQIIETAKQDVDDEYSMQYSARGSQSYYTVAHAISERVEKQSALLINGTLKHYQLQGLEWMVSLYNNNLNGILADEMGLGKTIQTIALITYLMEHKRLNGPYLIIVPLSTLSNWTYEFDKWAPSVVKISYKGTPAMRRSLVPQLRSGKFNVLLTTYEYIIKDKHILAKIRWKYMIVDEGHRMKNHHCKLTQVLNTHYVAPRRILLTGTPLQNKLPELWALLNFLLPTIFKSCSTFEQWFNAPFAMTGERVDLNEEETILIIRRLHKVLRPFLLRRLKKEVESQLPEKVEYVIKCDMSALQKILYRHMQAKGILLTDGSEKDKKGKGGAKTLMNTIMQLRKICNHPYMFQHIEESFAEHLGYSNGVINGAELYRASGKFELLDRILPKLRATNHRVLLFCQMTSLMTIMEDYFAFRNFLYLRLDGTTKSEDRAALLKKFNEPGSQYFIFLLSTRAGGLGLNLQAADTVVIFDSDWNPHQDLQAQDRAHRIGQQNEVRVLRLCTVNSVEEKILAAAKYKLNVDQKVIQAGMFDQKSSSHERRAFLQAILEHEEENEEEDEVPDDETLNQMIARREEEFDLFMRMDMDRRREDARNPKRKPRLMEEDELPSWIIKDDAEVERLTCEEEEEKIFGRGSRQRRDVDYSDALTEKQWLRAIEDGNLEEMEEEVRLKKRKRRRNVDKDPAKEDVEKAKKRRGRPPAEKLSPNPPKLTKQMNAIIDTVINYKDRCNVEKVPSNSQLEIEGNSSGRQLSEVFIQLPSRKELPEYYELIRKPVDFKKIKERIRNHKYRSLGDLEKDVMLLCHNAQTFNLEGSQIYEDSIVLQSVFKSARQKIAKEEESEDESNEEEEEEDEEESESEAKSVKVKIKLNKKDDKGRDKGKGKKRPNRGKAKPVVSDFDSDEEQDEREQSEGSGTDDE
Sequence of Tyrosine-protein kinase ABL1 (P00519 whole entry): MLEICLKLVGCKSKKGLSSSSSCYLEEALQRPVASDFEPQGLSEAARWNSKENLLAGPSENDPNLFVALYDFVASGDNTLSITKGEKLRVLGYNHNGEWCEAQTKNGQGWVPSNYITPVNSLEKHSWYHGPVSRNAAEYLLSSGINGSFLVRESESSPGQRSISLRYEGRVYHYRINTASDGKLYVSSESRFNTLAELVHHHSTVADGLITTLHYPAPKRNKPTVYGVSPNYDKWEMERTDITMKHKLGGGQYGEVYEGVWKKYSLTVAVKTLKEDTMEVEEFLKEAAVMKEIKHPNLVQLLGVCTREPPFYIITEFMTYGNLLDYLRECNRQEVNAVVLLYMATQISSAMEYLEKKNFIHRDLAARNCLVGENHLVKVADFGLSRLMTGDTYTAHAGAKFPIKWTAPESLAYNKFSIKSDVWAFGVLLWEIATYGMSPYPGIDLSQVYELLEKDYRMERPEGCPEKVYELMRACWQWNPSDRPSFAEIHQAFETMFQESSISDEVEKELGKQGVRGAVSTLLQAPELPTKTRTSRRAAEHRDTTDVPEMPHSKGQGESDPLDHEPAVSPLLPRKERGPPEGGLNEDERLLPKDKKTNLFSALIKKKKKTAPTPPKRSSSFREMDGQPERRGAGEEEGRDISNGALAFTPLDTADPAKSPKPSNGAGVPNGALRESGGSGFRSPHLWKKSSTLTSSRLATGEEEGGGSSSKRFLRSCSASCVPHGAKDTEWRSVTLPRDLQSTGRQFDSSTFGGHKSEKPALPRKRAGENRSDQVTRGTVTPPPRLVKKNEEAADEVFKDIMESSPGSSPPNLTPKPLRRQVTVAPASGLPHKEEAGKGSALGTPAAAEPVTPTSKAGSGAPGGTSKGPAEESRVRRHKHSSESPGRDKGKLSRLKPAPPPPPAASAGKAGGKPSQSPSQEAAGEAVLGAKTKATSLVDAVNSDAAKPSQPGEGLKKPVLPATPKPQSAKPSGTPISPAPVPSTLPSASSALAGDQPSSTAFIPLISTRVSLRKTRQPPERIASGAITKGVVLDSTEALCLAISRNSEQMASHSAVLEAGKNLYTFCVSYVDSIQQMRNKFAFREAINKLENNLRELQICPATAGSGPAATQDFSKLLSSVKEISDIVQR

In the case of `Cc1ccc(-c2ccc3c(ccc4sc5c(c43)NC[C@@H](C)NC5=O)n2)cn1`, the % of inhibition in assay [1] was -8%.
`Cc1cc(F)c(C(=O)Nc2cccc(-c3nncn3C(C)C)n2)cc1-n1cnc(C2CC2)c1` had a % of control in assay [2] of 100%.
In turn, `Cc1cc(CN)cc(C)c1-c1ncn(C)c1-c1cncn1C` yielded a dTM in assay [3] of -0.5 K.
As for `CCC(=O)N1CC[C@H](Nc2ncnc3c2CN(c2cnc(OC)c(C(F)(F)F)c2)CC3)C1` [LENIOLISIB], the pIC50 in assay [4] was less than 5.00.
As for `COCC(=O)NC/C=C/c1ccc2ncnc(Nc3ccc(Oc4ccc(C)nc4)c(C)c3)c2c1` [CP-724714], the % of control was found to be 100% in assay [5] and 94% in assay [6].
